Results taken from patent publication US7173018B2, “Phospholipid derivatives of non-steroidal anti-inflammatory drugs” (D-Pharm, Ltd., priority 1998, dated 2007).
≈ marks a conversion by molar mass, not a printed value.

Assays:
[1] = Octanol/saline distribution (partition coefficient Pc), shake-flask technique; conditions: for log Pc (octanol/saline distribution coefficient): 22° C., shake-flask
Protocol: In addition, the partition coefficient (Pc) values for these compounds, i.e their distribution ratios between the organic and the aqueous phases (octanol/saline), were calculated.
The distribution of the compounds between the organic and the aqueous phases was measured by the shake-flask technique. Five milliliters of octanol containing about 3 mg of the studied compound were mixed with 5 ml saline. The mixture was shaken overnight at 22° C. before the octanol and saline phases were separated. One ml from each phase was dissolved into an appropriate volume of ethanol so that the optical absorption of the obtained solution is in range of 0.1 to 1.0.
The coefficient Pc is calculated by the following ratio:
[formula] where Aoct is the optical absorption, at λmax, of the ethanol solution in which one ml of octanol phase is dissolved, V1 is the volume of this ethanol solution and l1 is the width (cm) of the cuvette used for measurement of the optical absorption.
Asal is the optical absorption, at λmax, of the ethanol solution in which the one ml of saline phase is dissolved, V2 is the volume of this ethanol solution and l2 is the width (cm) of the cuvette used for measurement of the optical absorption.

[2] = Solubility measurements of lipid derivatives in water, saline, ethanol and octanol; conditions: for solubility: 22 °C; for Solubility (mg/ml) Saline / Solubility (mg/ml) Water: 22° C.; a) gel, b) suspension obtained after filtration through 0.45 μm filter
Protocol: The solubility of several lipid derivatives of diclofenac, indomethacin, ibuprofen, naproxen and 6-methoxy-2-naphthylacetic acid was determined at room temperature (22° C.) in aqueous solutions (water and saline) and in organic solutions (ethanol and octanol). In addition, the partition coefficient (Pc) values for these compounds, i.e their distribution ratios between the organic and the aqueous phases (octanol/saline), were calculated.

[3] = In vitro cleavage of DP-DFC to free diclofenac in rat brain homogenate; assay type: in vitro ADME; conditions: for Cleavage of diclofenac from its lipid conjugate: brain homogenate, 37° C., up to 6 hours
Protocol: (§1) The ability of the compounds of the invention to be cleaved to yield free diclofenac, was studied in vitro in homogenates of rat brain and liver. Two compounds were tested: the prodrug 1-Stearoyl-2-{4-[2-(2,6-dichloroanilino)-phenylacetamido]butanoyl}-sn-glycero-3-phosphocholine (DP-DFC; Z=3), and the compound 1-Stearoyl-2-{3-[2-(2,6-dichloroanilino)-phenylacetamido]propanoyl}-sn-glycero-3-phosphatidylcholine (DP-DFC; Z=2), comprising, respectively, a bridging group having a total of 4 and 3 carbon atoms.
(§2) Liver and brain were surgically removed, under pentobarbitone anesthesia, from male Sabra rats weighing 250–280 g. About 1–1.5 g samples from each tissue were homogenized in PBS pH=7.4 (Dulbecco) at a ratio of 1:9 w/v of tissue to buffer.
(§3) DP-DFC was added to each homogenate to a final concentration of 40 μg/ml. The mixtures were incubated at 37° C. in shaking for 1, 2, 3 and 6 hours, and then were placed on ice to stop the reaction.
(§4) The amounts of free diclofenac in 1 ml samples from either the brain or liver homogenates were determined by reverse phase HPLC assay. The amount of protein in each sample was assayed by the Lowry method.
(§5) The result for each time point represents the average of five repetitions using tissues from five individual animals.
(§6) In order to evaluate the effect of temperature on the reaction, a parallel set of incubations was carried out at 4° C.

[4] = In vitro cleavage of DP-DFC to free diclofenac in rat liver homogenate; assay type: in vitro ADME; conditions: 37° C., up to 6 hours
Protocol: as §1, §2, §3, §4, §5, §6

Row | Compound | log Pc (octanol/saline distribution coefficient) [1] | solubility ([2]; saline, saline or isotonic) [µg/mL] | solubility ([2]; water) [µg/mL] | logD [1] | Cleavage of diclofenac from its lipid conjugate [3] | Cleavage of prodrug to DFC on cooling to 4° C. ([3]; parallel set of incubations in homogenates at 4° C. (data not shown)) | Cleavage of diclofenac from its lipid conjugate [4] | Solubility (mg/ml) Saline [2] | Solubility (mg/ml) Water [2]
1 | CCCCCCCCCCCCCCCCCC(=O)OC[C@H](COP(=O)([O-])OCC[N+](C)(C)C)OC(=O)CCCCCCCCCCCNC(=O)Cc1ccccc1Nc1c(Cl)cccc1Cl [DCF n=11, 1-Stearoyl-2-{12-[2-(2,6-dichloroanilino)phenylacetamido]dodecanoyl}-sn-glycero-3-phosphocholine] | ≧2.5 | < 1 | < 1 |  |  |  |  |  | 
2 | CCCCCCCCCCCCCCCCCC(=O)OC[C@H](COP(=O)([O-])OCC[N+](C)(C)C)OC(=O)CCCNC(=O)Cc1ccccc1Nc1c(Cl)cccc1Cl [DCF n=3, 1-Stearoyl-2-{4-[2-(2,6-dichloroanilino)phenylacetamido]butanoyl}-sn-glycero-3-phosphocholine] | ≧3 | 2 (≈ 2.25 µM) | 2 (≈ 2.25 µM) |  | significant cleavage | completely inhibited | significant cleavage |  | 
3 | CCCCCCCCCCCCCCCCCC(=O)OC[C@H](COP(=O)([O-])OCC[N+](C)(C)C)OC(=O)CCNC(=O)Cc1ccccc1Nc1c(Cl)cccc1Cl [DCF n=2, 1-Stearoyl-2-{3-[2-(2,6-dichloroanilino)phenylacetamido]propanoyl}-sn-glycero-3-phosphocholine] |  | 2 (≈ 2.29 µM) | 3 (≈ 3.44 µM) | 2.8 ± 0.1 | not |  | not |  | 
4 | CCCCCCCCCCCCCCCCCC(=O)OC[C@H](COP(=O)([O-])OCC[N+](C)(C)C)OC(=O)CCCCCCCNC(=O)Cc1ccccc1Nc1c(Cl)cccc1Cl [DCF n=7, 1-Stearoyl-2-{8-[2-(2,6-dichloroanilino)phenylacetamido]octanoyl}-sn-glycero-3-phosphocholine] | ≧3 | 1 (≈ 1.06 µM) | 1 (≈ 1.06 µM) |  |  |  |  |  | 
5 | CCCCCCCCCCCCCCCCCC(=O)OC[C@H](COP(=O)([O-])OCC[N+](C)(C)C)OC(=O)CCNC(=O)C(C)c1ccc(CC(C)C)cc1 (stereo partly drawn) [Ibu n=2, 1-Stearoyl-2-{3-[α-methyl-4-(2-methylpropyl)benzeneacetamido]propanoyl}-sn-glycero-3-phosphocholine] |  | 300 (≈ 383 µM) | 200 (≈ 255 µM) | 1.8 |  |  |  |  | 
6 | CCCCCCCCCCCCCCCCCC(=O)OC[C@H](COP(=O)([O-])OCC[N+](C)(C)C)OC(=O)CCNC(=O)[C@@H](C)c1ccc2cc(OC)ccc2c1 [Nap n=2, 1-Stearoyl-2-{3-[(S)-6-methoxy-α-methyl-2-naphtaleneacetamido]propanoyl}-sn-glycero-3-phosphocholine] | ≧3 |  |  |  |  |  |  | 0.06^a) mg/ml | 0.01^a) mg/ml
7 | CCCCCCCCCCCCCCCCCC(=O)OC[C@H](COP(=O)([O-])OCC[N+](C)(C)C)OC(=O)CCCCCNC(=O)C(C)c1ccc(CC(C)C)cc1 (stereo partly drawn) [Ibu n=5, 1-Stearoyl-2-{6-[α-methyl-4-(2-methylpropyl)benzeneacetamido]hexanoyl}-sn-glycero-3-phosphocholine] | ≧3 | 500 (≈ 606 µM) | 500 (≈ 606 µM) |  |  |  |  |  | 
8 | CCCCCCCCCCCCCCCCCC(=O)OC[C@H](COP(=O)([O-])OCC[N+](C)(C)C)OC(=O)CCCCNC(=O)Cc1ccccc1Nc1c(Cl)cccc1Cl [DCF n=4, 1-Stearoyl-2-{5-[2-(2,6-dichloroanilino)phenylacetamido]valeroyl}-sn-glycero-3-phosphocholine] | ≧3 | 2 (≈ 2.22 µM) | 2 (≈ 2.22 µM) |  |  |  |  |  | 
9 | CCCCCCCCCCCCCCCCCC(=O)OC[C@H](COP(=O)([O-])OCC[N+](C)(C)C)OC(=O)CCCNC(=O)[C@@H](C)c1ccc2cc(OC)ccc2c1 [Nap n=3, 1-Stearoyl-2-{4-[(S)-6-methoxy-α-methyl-2-naphtaleneacetamido]butanoyl}-sn-glycero-3-phosphocholine] | ≧3 |  |  |  |  |  |  | 0.09^a) mg/ml | 0.12^a) mg/ml
10 | CCCCCCCCCCCCCCCCCC(=O)OC[C@H](COP(=O)([O-])OCC[N+](C)(C)C)OC(=O)CCCCCNC(=O)[C@@H](C)c1ccc2cc(OC)ccc2c1 [Nap n=5, 1-Stearoyl-2-{6-[(S)-6-methoxy-α-methyl-2-naphtaleneacetamido]hexanoyl}-sn-glycero-3-phosphocholine] | ≧3 |  |  |  |  |  |  | 0.2^a) mg/ml | 0.2^a) mg/ml

Now from value to compound, other results behind:

Row | log Pc (octanol/saline distribution coefficient) [1] | solubility ([2]; saline, saline or isotonic) [µg/mL] | solubility ([2]; water) [µg/mL] | logD [1] | Cleavage of diclofenac from its lipid conjugate [3] | Cleavage of prodrug to DFC on cooling to 4° C. ([3]; parallel set of incubations in homogenates at 4° C. (data not shown)) | Cleavage of diclofenac from its lipid conjugate [4] | Compound | Solubility (mg/ml) Saline [2] | Solubility (mg/ml) Water [2]
11 |  | ~10 (≈ 10.2 µM) | < 10 | 3.2 |  |  |  | CCCCCCCCCCCCCCCCCC(=O)OC[C@H](COP(=O)([O-])OCC[N+](C)(C)C)OC(=O)CCCCCNC(=O)Cc1c(C)n(C(=O)c2ccc(Cl)cc2)c2ccc(OC)cc12 [Indo n=5, 1-Stearoyl-2-{6-[1-(p-chlorobenzoyl)-5-methoxy-2-methyl-3-indolylacetamido]hexanoyl}-sn-glycero-3-phosphocholine] |  | 
12 | 2.9 | ~100 (≈ 104 µM) | < 10 |  |  |  |  | CCCCCCCCCCCCCCCCCC(=O)OC[C@H](COP(=O)([O-])OCC[N+](C)(C)C)OC(=O)CCCCNC(=O)Cc1c(C)n(C(=O)c2ccc(Cl)cc2)c2ccc(OC)cc12 [Indo n=4, 1-Stearoyl-2-{5-[1-(p-chlorobenzoyl)-5-methoxy-2-methyl-3-indolylacetamido]valeroyl}-sn-glycero-3-phosphocholine] |  | 
13 |  | ~1500 (≈ 1610 µM) | < 900 | 2.5 |  |  |  | CCCCCCCCCCCCCCCCCC(=O)OC[C@H](COP(=O)([O-])OCC[N+](C)(C)C)OC(=O)CCNC(=O)Cc1c(C)n(C(=O)c2ccc(Cl)cc2)c2ccc(OC)cc12 [Indo n=2, 1-Stearoyl-2-{3-[1-(p-chlorobenzoyl)-5-methoxy-2-methyl-3-indolylacetamido]propanoyl}-sn-glycero-3-phosphocholine] |  | 
14 |  | ~1500 (≈ 1580 µM) | < 600 | 2.5 |  |  |  | CCCCCCCCCCCCCCCCCC(=O)OC[C@H](COP(=O)([O-])OCC[N+](C)(C)C)OC(=O)CCCNC(=O)Cc1c(C)n(C(=O)c2ccc(Cl)cc2)c2ccc(OC)cc12 [Indo n=3, 1-Stearoyl-2-{4-[1-(p-chlorobenzoyl)-5-methoxy-2-methyl-3-indolylacetamido]butanoyl}-sn-glycero-3-phosphocholine] |  | 
15 |  |  | ~5 (≈ 4.98 µM) | 3.7 |  |  |  | CCCCCCCCCCCCCCCCCC(=O)OC[C@H](COP(=O)([O-])OCC[N+](C)(C)C)OC(=O)CCCCCCCNC(=O)Cc1c(C)n(C(=O)c2ccc(Cl)cc2)c2ccc(OC)cc12 [Indo n=7, 1-Stearoyl-2-{8-[1-(p-chlorobenzoyl)-5-methoxy-2-methyl-3-indolylacetamido]octanoyl}-sn-glycero-3-phosphocholine] |  | 
